Results taken from US12077503B2, “Substituted cyclic amides and their use as herbicides” (FMC CORPORATION, priority 2015, dated 2024).

What was measured:
Type in all cases: in vivo
Kochia (Kochia scoparia) [1] = assay: Test A preemergence; details: Bassia scoparia, pre-emergence, 240 h, 0 to 100 scale where 0 is no effect and 100 is complete control, read-out: Kochia plant response rating; for pest or weed control at 31 g/ha: 31 g ai/ha, Preemergence; for pest or weed control at 125 g/ha: 125 g ai/ha, preemergence, visual injury rating, approximately 10 d
Method in brief: (§1)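 Seeded soil received test chemicals as a preemergence directed spray, and seedlings at one to two leaves, 2–10 cm tall, received them postemergence, in a non-phytotoxic, surfactant-containing solvent mixture. Pots were held in a greenhouse for approximately 10 d, then rated for injury from 0, no effect, to 100, complete control.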

[2] = system: barnyardgrass (Echinochloa crus-galli); assay: Test A preemergence; details: Echinochloa crus-galli, pre-emergence, 240 h, 0 to 100 scale where 0 is no effect and 100 is complete control, read-out: Barnyardgrass plant response rating; for pest or weed control at 31 g/ha: 31 g ai/ha, Preemergence; for pest or weed control at 125 g/ha: 125 g ai/ha, preemergence, visual injury rating, approximately 10 d
Method in brief: as §1

[3] = system: giant foxtail (Setaria faberii); assay: Test A preemergence; details: Setaria faberi, pre-emergence, 240 h, 0 to 100 scale where 0 is no effect and 100 is complete control, read-out: Foxtail, Giant plant response rating; for pest or weed control at 31 g/ha: 31 g ai/ha, Preemergence; for pest or weed control at 125 g/ha: 125 g ai/ha, preemergence, visual injury rating, approximately 10 d
Method in brief: as §1

[4] = system: pigweed (Amaranthus retroflexus); assay: Test A preemergence; details: Amaranthus retroflexus, pre-emergence, 240 h, 0 to 100 scale where 0 is no effect and 100 is complete control, read-out: Pigweed plant response rating; for pest or weed control at 31 g/ha: 31 g ai/ha, Preemergence; for pest or weed control at 125 g/ha: 125 g ai/ha, preemergence, visual injury rating, approximately 10 d
[5] = system: ragweed (common ragweed, Ambrosia elatior); assay: Test A preemergence; details: Ambrosia artemisiifolia, pre-emergence, 240 h, 0 to 100 scale where 0 is no effect and 100 is complete control, read-out: Ragweed plant response rating; for pest or weed control at 31 g/ha: 31 g ai/ha, Preemergence; for pest or weed control at 125 g/ha: 125 g ai/ha, preemergence, visual injury rating, approximately 10 d
Method in brief: as §1

[6] = system: ryegrass, Italian (Italian ryegrass, Lolium multiflorum); assay: Test A preemergence; details: Lolium multiflorum, pre-emergence, 240 h, 0 to 100 scale where 0 is no effect and 100 is complete control, read-out: Ryegrass, Italian plant response rating; for pest or weed control at 31 g/ha: 31 g ai/ha, Preemergence; for pest or weed control at 125 g/ha: 125 g ai/ha, preemergence, visual injury rating, approximately 10 d
Method in brief: as §1

[7] = system: Galium (catchweed bedstraw, Galium aparine); assay: Test A postemergence; details: Galium, post-emergence, 240 h, Postemergence, read-out: Galium plant response rating (0 to 100 scale); for pest or weed control at 125 g/ha: 125 g ai/ha, visual rating about 10 d after treatment; for pest or weed control at 31 g/ha: 31 g ai/ha, 0 is no effect, 100 is complete control
Method in brief: as §1

Kochia (Kochia scoparia) [8] = assay: Test A postemergence; details: Bassia scoparia, post-emergence, 240 h, Postemergence, read-out: Kochia plant response rating (0 to 100 scale); for pest or weed control at 125 g/ha: 125 g ai/ha, visual rating about 10 d after treatment; for pest or weed control at 31 g/ha: 31 g ai/ha, 0 is no effect, 100 is complete control
Method in brief: as §1

[9] = system: barnyardgrass (Echinochloa crus-galli); assay: Test A postemergence; details: Echinochloa crus-galli, post-emergence, 240 h, Postemergence; for pest or weed control at 125 g/ha: 125 g ai/ha, visual rating about 10 d after treatment, read-out: Barnyardgrass plant response rating (0 to 100 scale, 0 no effect, 100 complete control); for pest or weed control at 31 g/ha: 31 g ai/ha, 0 is no effect, 100 is complete control, read-out: Barnyardgrass plant response rating (0 to 100 scale)
Method in brief: as §1

[10] = system: blackgrass (Alopecurus myosuroides); assay: Test A postemergence; details: Alopecurus myosuroides, post-emergence, 240 h, Postemergence, read-out: Blackgrass plant response rating (0 to 100 scale); for pest or weed control at 125 g/ha: 125 g ai/ha, visual rating about 10 d after treatment; for pest or weed control at 31 g/ha: 31 g ai/ha, 0 is no effect, 100 is complete control
Method in brief: as §1

corn (Zea mays) = assay: Test A postemergence; details: Zea mays, post-emergence, 240 h, Postemergence, read-out: Corn plant response rating (0 to 100 scale); for plant injury at 125 g/ha: 125 g ai/ha, visual rating about 10 d after treatment; for plant injury at 31 g/ha: 31 g ai/ha, 0 is no effect, 100 is complete control
Method in brief: as §1

[11] = system: giant foxtail (Setaria faberii); assay: Test A postemergence; details: Setaria faberi, post-emergence, 240 h, Postemergence, read-out: Foxtail, Giant plant response rating (0 to 100 scale); for pest or weed control at 125 g/ha: 125 g ai/ha, visual rating about 10 d after treatment; for pest or weed control at 31 g/ha: 31 g ai/ha, 0 is no effect, 100 is complete control
Method in brief: as §1

[12] = system: pigweed (Amaranthus retroflexus); assay: Test A postemergence; details: Amaranthus retroflexus, post-emergence, 240 h, Postemergence, read-out: Pigweed plant response rating (0 to 100 scale); for pest or weed control at 125 g/ha: 125 g ai/ha, visual rating about 10 d after treatment; for pest or weed control at 31 g/ha: 31 g ai/ha, 0 is no effect, 100 is complete control
Method in brief: as §1

[13] = system: ragweed (common ragweed, Ambrosia elatior); assay: Test A postemergence; details: Ambrosia artemisiifolia, post-emergence, 240 h, Postemergence, read-out: Ragweed plant response rating (0 to 100 scale); for pest or weed control at 125 g/ha: 125 g ai/ha, visual rating about 10 d after treatment; for pest or weed control at 31 g/ha: 31 g ai/ha, 0 is no effect, 100 is complete control
Method in brief: as §1

[14] = system: ryegrass, Italian (Italian ryegrass, Lolium multiflorum); assay: Test A postemergence; details: Lolium multiflorum, post-emergence, 240 h, Postemergence, read-out: Ryegrass, Italian plant response rating (0 to 100 scale); for pest or weed control at 125 g/ha: 125 g ai/ha, visual rating about 10 d after treatment; for pest or weed control at 31 g/ha: 31 g ai/ha, 0 is no effect, 100 is complete control
Method in brief: as §1

[15] = system: wheat (Triticum aestivum); assay: Test A postemergence; details: Triticum aestivum, post-emergence, 240 h, Postemergence, read-out: Wheat plant response rating (0 to 100 scale); for plant injury at 125 g/ha: 125 g ai/ha, visual rating about 10 d after treatment; for plant injury at 31 g/ha: 31 g ai/ha, 0 is no effect, 100 is complete control
Method in brief: as §1

[16] = system: barnyardgrass (Echinochloa crus-galli); assay: Test B flooded paddy test; details: Echinochloa crus-galli, 250 g ai/ha, Flood; 0 to 100 scale where 0 is no effect and 100 is complete control; read-out: Barnyardgrass plant response rating
Method in brief: (§2)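 2-leaf plants; pots flooded 3 cm over soil; cpd added to paddy water; depth held; greenhouse 13–15 d; visual rating vs controls, 0 = no effect, 100 = complete control.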

[17] = system: ducksalad (Heteranthera limosa); assay: Test B flooded paddy test; details: Heteranthera limosa, 250 g ai/ha, Flood; 0 to 100 scale where 0 is no effect and 100 is complete control; read-out: Ducksalad plant response rating
Method in brief: as §2

rice (Oryra sativa) = assay: Test B flooded paddy test; details: Oryza sativa, 250 g ai/ha, Flood; 0 to 100 scale where 0 is no effect and 100 is complete control; read-out: Rice plant response rating
Method in brief: as §2

[18] = system: sedge, umbrella (small-flower umbrella sedge, Cyperus difformis); assay: Test B flooded paddy test; details: Cyperus difformis, 250 g ai/ha, Flood; 0 to 100 scale where 0 is no effect and 100 is complete control; read-out: Sedge, Umbrella plant response rating
Method in brief: as §2

Row | Compound | pest or weed control at 31 g/ha (Kochia (Kochia scoparia) [1]) [%] | pest or weed control at 125 g/ha (Kochia (Kochia scoparia) [1]) [%] | pest or weed control at 31 g/ha [2] [%] | pest or weed control at 125 g/ha [2] [%] | pest or weed control at 31 g/ha [3] [%] | pest or weed control at 125 g/ha [3] [%] | pest or weed control at 31 g/ha [4] [%] | pest or weed control at 125 g/ha [4] [%] | pest or weed control at 31 g/ha [5] [%] | pest or weed control at 125 g/ha [5] [%] | pest or weed control at 31 g/ha [6] [%] | pest or weed control at 125 g/ha [6] [%] | pest or weed control at 125 g/ha [7] [%] | pest or weed control at 31 g/ha [7] [%] | pest or weed control at 125 g/ha (Kochia (Kochia scoparia) [8]) [%] | pest or weed control at 31 g/ha (Kochia (Kochia scoparia) [8]) [%] | pest or weed control at 125 g/ha [9] [%] | pest or weed control at 31 g/ha [9] [%] | pest or weed control at 125 g/ha [10] [%] | pest or weed control at 31 g/ha [10] [%] | also measured
1 | CN1C[C@H](c2ccc(C(F)(F)F)cc2)[C@@H](C(=O)Nc2ccccc2-n2cncn2)C1=O [Compound 1288] | 0 | 0 | 0 | 0 | 0 | 0 | 0 | 0 | 0 | 0 | 0 | 0 | 0 | 0 | 0 | 0 | 0 | 0 | 0 | 0 | plant injury at 125 g/ha (corn (Zea mays)): 0%; plant injury at 31 g/ha (corn (Zea mays)): 0%; pest or weed control at 125 g/ha [11]: 0%; pest or weed control at 31 g/ha [11]: 0%; pest or weed control at 125 g/ha [12]: 0%; pest or weed control at 31 g/ha [12]: 0%; pest or weed control at 125 g/ha [13]: 0%; pest or weed control at 31 g/ha [13]: 0%; pest or weed control at 125 g/ha [14]: 0%; pest or weed control at 31 g/ha [14]: 0%; plant injury at 125 g/ha [15]: 0%; plant injury at 31 g/ha [15]: 0%; pest or weed control at 250 g/ha [16]: 0%; pest or weed control at 250 g/ha [17]: 0%; pest or weed control at 250 g/ha (rice (Oryra sativa)): 0%; pest or weed control at 250 g/ha [18]: 0%
2 | CN1C[C@H](c2cccc(C(F)(F)F)c2)[C@@H](C(=O)Nc2ccccc2-n2cncn2)C1=O [Compound 1289] | 0 | 0 | 20 | 30 | 50 | 50 | 0 | 0 | 0 | 0 | 0 | 0 | 0 | 0 | 0 | 0 | 0 | 0 | 0 | 0 | plant injury at 125 g/ha (corn (Zea mays)): 0%; plant injury at 31 g/ha (corn (Zea mays)): 0%; pest or weed control at 125 g/ha [11]: 0%; pest or weed control at 31 g/ha [11]: 0%; pest or weed control at 125 g/ha [12]: 0%; pest or weed control at 31 g/ha [12]: 0%; pest or weed control at 125 g/ha [13]: 0%; pest or weed control at 31 g/ha [13]: 0%; pest or weed control at 125 g/ha [14]: 0%; pest or weed control at 31 g/ha [14]: 0%; plant injury at 125 g/ha [15]: 0%; plant injury at 31 g/ha [15]: 0%; pest or weed control at 250 g/ha [16]: 0%; pest or weed control at 250 g/ha [17]: 0%; pest or weed control at 250 g/ha (rice (Oryra sativa)): 0%; pest or weed control at 250 g/ha [18]: 0%
